From patent publication US20100152285A1, “Flavononol Renin Inhibitor Compounds and Methods of Use Thereof” (HerbalScience Group LLC, priority 2008, published 2010)

Test system: monocrotaline induced hypertension in rats
Assay: Monocrotaline-induced hypertension rat model, tail-cuff blood pressure and pulse
Type: in vivo, Sprague-Dawley rats
Method: Animal Care and Handeling. Sprague-Dawley rats (Charles River Laboratories, Wilmington, Mass.) 60 days old and weighing 140-160 g were utilized. Animals were kept in standard autoclaved rodent cages with ad libitum food (Harlan Teklad Irradiated Rodent Diet) and autoclaved water. The rats were housed on Harlan Tek-chip pelleted paper in static micro isolators maintained at 22° C., 60% relative humidity, and under a 12 h light cycle. The animals were kept at the facility for 5 days to get accustomed to the environment after the arrival from the vendor. All animal care procedures complied with the recommendations of the Guide for Care and Use of Laboratory Animals with respect to restraint, husbandry, surgical procedures, feed and fluid regulation, and veterinary care. Induction of hypertension and the treatment. Rats were injected subcutaneously with monocrotaline (MCT, 60 mg kg^−1) and monitored for 12 days for the development of pulmonary inflammation and initiation of the pulmonary hypertensive response. After the incubation period, Tristenonol aglycone (Cmp. 15 of the present invention) was administrated orally to the animals in three different doses (120, 90, and 60 mg kg^−1 body weights). Blood pressure (BP; Systolic and Diastolic) and heart beats were recorded three times a day 24, 48, and 72 h after administration of compound BP.
Test Articles and Animal Groups. Three doses of Tristenonol aglycone (Cmp 15 of the present invention) were tested. The animals were randomized before and grouped in to 10 animals per group. For positive controls used the commercially available drug Atenol® was used.
Rats were sorted into six groups of ten and treated according to the protocol in Table 1. […] All remaining groups were administered monocrotaline. […] Groups 3, 4 and 5 received Tristenonol aglycone (Cmp 15 of the present invention) at […], 90, and 60 mg respectively per kg body weight 12 days after induction of hypertension with monocrotaline. Positive Control Group 6 was given the commercial drug Atenol® at 120 mg kg^−1.
Systolic blood pressure, diastolic blood pressure and heart beats were recorded in the morning, afternoon and evening three times, 24, 48, and 72 h after Tristenonol aglycone (Cmp 15) and Atenol® administration.
Protocol for the Measurement of the Blood Pressure. A tail-cuff was placed on the tail to occlude the blood flow. Upon deflation a non-invasive blood pressure sensors, placed distal to the occlusion cuff, was utilized to monitor the blood pressure. Volume Pressure Recording. The volume pressure recording sensor utilizes a specially designed differential pressure transducer to non-invasively measure the blood volume in the tail. Volume pressure recording actually measured six blood pressure parameters simultaneously: systolic blood pressure, diastolic blood pressure, mean blood pressure, heart pulse rate, tail blood volume and tail blood flow. […] In addition, volume pressure recording was not dependent on the skin pigmentation of the animal. Dark-skinned animals have no negative effect on volume pressure recording measurements. Special attention was afforded to the length of the occlusion cuff with volume pressure recording in order to derive the most accurate blood pressure readings. Endpoint Measurements. Each animal was sacrificed when the animal reached the predetermined endpoint of being moribund or when the animals remained […]. The animals were observed and if found incapable of eating or drinking or if their body temperature were too low to sustain life, the animals were sacrificed. Treatment efficacy is determined from the reduction in systolic blood pressure, diastolic blood pressure and heart beats of the animal compared to the untreated control group. Toxicity and Necropsy Examination. Animals were weighed daily throughout the experiment. […]

[1] = 120 mg kg^−1 body weight, rats with monocrotaline
[2] = monocrotaline 60 mg kg^−1 subcutaneously

Structure (SMILES) | decrease in Diastolic blood pressure compared to untreated control [1] | reduction in pulse rate compared to untreated controls [1] | reduction of mean Systolic blood pressure compared to untreated animals (120 mg kg^−1 body weight, rats with monocrotaline, 24-72 h) [%] | increase in Diastolic blood pressure in injected rats [2] | increase in Systolic blood pressure in injected rats [2] | increase in pulse rate in injected animals [2]
CC(C)NCC(O)COc1ccc(CC(N)=O)cc1 (stereo not drawn) [Atenol®] | 24-25% | 35-36.38% | 28 |  |  | 
C[C@H]1C(=O)O[C@@H]2CCN3CC=C(COC(=O)[C@](C)(O)[C@]1(C)O)[C@H]23 [Monocrotaline, monocrotaline] |  |  |  | 49-52% | 40-45% | 60-70%
